Earlier results on four molecules are cited in patent US20240315956A1, “METHOD OF PRODUCTION OF THE COMPOSITION OF CYCLOOXYGENASE-2 (COX-2) INHIBITORS” (US NANO FOOD & DRUG INC, priority 2021, published 2024).

The pKa is the negative logarithm of the acid dissociation constant.

SMILES strings stand for the structures.

For `Cc1ccc(-c2cc(C(F)(F)F)nn2-c2ccc(S(N)(=O)=O)cc2)cc1` [Celecoxib], the solubility in water entry is on record as “practically insoluble in water”.

Take `CCCN1CC(c2ccc(S(C)(=O)=O)cc2)=C(c2ccc(C)cc2)C1=O` [Imrecoxib]: the solubility in water entry was “practically insoluble in water”.

With `CCC1(C)CC(=O)NC1=O` (stereo not shown) [ethosuximide], the pKa is listed as 10.73.

As to `Nc1nnc(-c2cccc(Cl)c2Cl)c(N)n1` [lamotrigine], the pKa is given as 15.
